Experimental data published in paper PMC4277420, “Assessment of [^125I]WYE-230949 as a Novel Histamine H3 Receptor Radiopharmaceutical” (PLoS ONE, 2014).
pKd, pKi: −log10 of the molar value. Read-outs that look alike come from different tables or passages of the source.

Assays:
[1] = target: human histamine H3 receptors; set-up: method as in earlier work; details: human histamine H3 receptor; cited from earlier work
[2] = target: rat histamine H3 receptors; set-up: method as in earlier work; details: rat histamine H3 receptor; cited from earlier work
[3] = cited from earlier work
[4] = cited from earlier work; remark: listed apart in the source
[5] = set-up: method as in PMID 19910432; details: porcine brain, 20 min post injection; cited from earlier work
[6] = set-up: method as in PMID 16934699; details: rats, 5 min post injection; cited from earlier work
[7] = set-up: method as in PMID 16934699, PMID 17998102; details: cited from earlier work
[8] = target: T1, rat histamine H3 receptor (Rattus norvegicus, UniProt Q9QYN8); details: rat striatum; cited from earlier work
T1 construct: from tissue; host or cells: whole brain of male Sprague-Dawley rats, homogenate pellet

[9] = cited from earlier work; remark: listed apart in the source
[10] = target: T1, rat histamine H3 receptor; test: In vitro saturation radioligand binding to rat brain homogenates; details: whole rat brain homogenates, one-site binding model, n = 8
Method: Animals (male Sprague-Dawley rats; Harlan, UK) were killed by cervical dislocation. Whole brains were immediately excised and placed into ice-cold Tris-HCl buffer (Tris […], pH 7.4; EDTA 5 mM), homogenised and centrifuged at approx 40,000 g for 10 min at 4°C (Beckman J2-21M/E). The pellet was resuspended in 25 ml of buffer and centrifuged as previously, then the final pellet was resuspended in 10 ml of ice cold Tris buffer and stored at −50°C until required. Protein content was analysed using Bio-Rad reagent; absorbance was read on a spectrophotometer at 562 nm. [^125I]WYE230949 binding assays were carried out in a final incubation volume of 500 µl containing Tris-HCl buffer (Tris […], pH 7.4; EDTA 5 mM), brain homogenates (1.47 to 2.27 mg/ml of protein) and [^125I]WYE230949 (0.04–102 nM). Non-specific binding was defined in the presence of 10 µM iodophenpropit. Samples were incubated at 30°C for 30 min, then filtered rapidly through Whatman GF/B filters (pre-treated with 0.3% polyethylenimine; Aldrich, UK) using a Brandel M24R cell harvester and the filters washed with 3×4 ml ice-cold Tris buffer. Radioactivity on the filters was determined by liquid scintillation counting a minimum of 48 h after filtration. All assays were performed in triplicate. Specific binding was determined by subtracting non-specific binding from total binding at each concentration; Kd and Bmax values derived using GraphPad Prism (version 4.03), and expressed as mean ±SEM of the triplicate assays.

T1 sequence (Q9QYN8 whole entry): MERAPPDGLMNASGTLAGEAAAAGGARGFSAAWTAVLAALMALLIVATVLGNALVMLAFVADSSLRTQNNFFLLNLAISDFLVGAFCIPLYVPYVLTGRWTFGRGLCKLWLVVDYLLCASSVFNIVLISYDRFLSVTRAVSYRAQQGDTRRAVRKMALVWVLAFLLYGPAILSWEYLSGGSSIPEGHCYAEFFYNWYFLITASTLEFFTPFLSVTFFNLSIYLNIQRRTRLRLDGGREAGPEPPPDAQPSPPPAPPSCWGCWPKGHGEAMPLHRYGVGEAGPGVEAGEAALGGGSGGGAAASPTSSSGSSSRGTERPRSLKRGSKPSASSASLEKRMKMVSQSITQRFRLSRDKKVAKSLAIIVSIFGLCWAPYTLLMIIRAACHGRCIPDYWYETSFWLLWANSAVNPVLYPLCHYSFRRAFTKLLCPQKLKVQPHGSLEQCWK

## O=C(c1ccc(Cn2cnc3cccc(I)c32)cc1)N1CC[C@H](N2CCCC2)C1 [WYE-230949]
[1]
  pKi: 9.52
[2]
  pKi: 8.24

## [11CH3]NC(=O)c1ccc(Oc2ccc3c(c2)CCN(C2CCC2)CC3)nc1 [[^11C]GSK189254]
[3]; 30 minutes post injection
  parent remaining in plasma: 58%
[3]; after 90 min
  parent remaining in plasma: 55%
[4]
  LogD: 1.7
[5]
  brain uptake: 9.0 %ID/L

## C(#Cc1cccc([11CH2]N2CCOCC2)c1)CCN1CCCCC1 [[^11C]JNJ-10181457, 4-[3-(4-piperidin-1-yl-but-1-ynyl)-[^11C]benzyl]-morpholine]
[6]
  brain uptake: 1.38 %ID/g
[7]; 30 min post injection
  parent remaining in the brain: greater than 80%

## [18F]c1ccc(COCCCc2cnc[nH]2)cc1 [[^18F]fluoroproxyfan]
[3]; 30 minutes post injection
  parent remaining in plasma: 43%
[7]; 30 min post injection
  parent remaining in the brain: 94%
[7]; 120 min post injection
  parent remaining in the brain: 68%

## [123I]c1ccc(COCCCc2cnc[nH]2)cc1 [[^123I]iodoproxyfan]
[8]
  Bmax: 78 fmol/mg of protein
[9]
  peak brain uptake: ~1.5 %ID/g

## O=C(c1ccc(Cn2cnc3cccc(I)c32)cc1)N1CC[C@H](N2CCCC2)C1 [[^125I]WYE-230949]
[10]
  pKd: 8.16
